Results on seven compounds are retold here after US20050282743A1, “Molecular interactions in cells” (Arbor Vita Corporation, priority 2001, published 2005).

Peptide text beside a SMILES is read from it. * marks the point of attachment. Biotin = O=C1N[C@H]2[C@H](CS[C@H]2CCCCC(=O)*)N1

Holding throughout (assay): Apparent affinity (Kd) by titration of PL peptide in the G assay
Common to all, as to assay type: binding

In assay [1] the target is T1, PDZ-domain polypeptide (GST/PDZ fusion protein) (Homo sapiens, UniProt Q96HC4).
T1 construct: made in house; host or cells: E. coli (DH5alpha, BL21 or JM109)
T1 sequence (Q96HC4 whole entry, the tested form may be a part): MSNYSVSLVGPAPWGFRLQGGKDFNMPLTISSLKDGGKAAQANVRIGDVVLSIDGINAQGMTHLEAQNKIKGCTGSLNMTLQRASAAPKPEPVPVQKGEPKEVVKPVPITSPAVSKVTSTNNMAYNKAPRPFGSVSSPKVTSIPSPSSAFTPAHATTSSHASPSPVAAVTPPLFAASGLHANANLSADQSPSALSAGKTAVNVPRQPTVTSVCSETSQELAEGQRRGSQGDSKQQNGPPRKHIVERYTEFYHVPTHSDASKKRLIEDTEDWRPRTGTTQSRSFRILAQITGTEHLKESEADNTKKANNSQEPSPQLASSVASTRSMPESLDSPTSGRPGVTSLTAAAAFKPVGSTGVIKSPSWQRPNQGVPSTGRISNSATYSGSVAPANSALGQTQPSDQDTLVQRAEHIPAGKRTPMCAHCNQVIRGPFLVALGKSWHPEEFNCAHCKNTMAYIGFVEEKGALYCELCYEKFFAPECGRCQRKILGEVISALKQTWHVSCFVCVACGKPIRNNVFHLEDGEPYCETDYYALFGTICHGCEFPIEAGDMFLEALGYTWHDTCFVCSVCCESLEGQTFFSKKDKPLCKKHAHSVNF
Particulars: PDZ LIM Protein, PDZ Domain 1; titration of the PL peptide; read-out: Peptide Optimal Conc (Kd, dissociation constant). In short, it runs like this: (§1)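 A fixed concentration of GST/PDZ fusion protein, 5 ug/ml by default, was mixed in solution with increasing labeled PL peptide (e.g. 0.1 uM-1 mM). Reaction times ranged from 10 minutes to 2 days at 4-37° C. Complexes were separated from free peptide and detected via the label as in the G assay, apparent affinity coming from the saturating concentration.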

The target of assay [2] is T2, PDZ-domain polypeptide (GST/PDZ fusion protein) (Homo sapiens, UniProt O14907).
T2 construct: made in house; host or cells: E. coli (DH5alpha, BL21 or JM109)
T2 sequence (O14907 whole entry, the tested form may be a part): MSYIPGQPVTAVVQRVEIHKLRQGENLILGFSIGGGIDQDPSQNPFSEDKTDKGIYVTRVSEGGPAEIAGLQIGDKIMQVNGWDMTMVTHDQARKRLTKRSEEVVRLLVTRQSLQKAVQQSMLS
The note with it: PDZ TIP1, PDZ Domain 1; titration of the PL peptide; read-out: Peptide Optimal Conc (Kd, dissociation constant). Put shortly: as §1

The target of assay [3] is T3, PDZ-domain polypeptide (GST/PDZ fusion protein) (Homo sapiens, UniProt P57105).
T3 construct: made in house; host or cells: E. coli (DH5alpha, BL21 or JM109)
The note with it: PDZ Outer Membrane, PDZ Domain 1; Protein Optimal Conc 5. Put shortly: as §1

Assay [4] deals with T4, PDZ-domain polypeptide (GST/PDZ fusion protein) (Homo sapiens, UniProt Q969H4).
T4 construct: made in house; host or cells: E. coli (DH5alpha, BL21 or JM109)
The note with it: PDZ Connector Enhancer, PDZ Domain 1; Protein Optimal Conc 5. In short, it runs like this:
as §1

Assay [5] deals with T5, PDZ-domain polypeptide (GST/PDZ fusion protein) (Homo sapiens, UniProt O15018).
T5 construct: made in house; host or cells: E. coli (DH5alpha, BL21 or JM109)
Particulars: Peptide Optimal Conc (Kd by titration of the PL peptide), PDZ AIPC, PDZ Domain 1. Put shortly: as §1

The target in assay [6] is T6, PDZ-domain polypeptide (GST/PDZ fusion protein) (Homo sapiens, UniProt Q9Y3R0).
T6 construct: made in house; host or cells: E. coli (DH5alpha, BL21 or JM109)
Particulars: Peptide Optimal Conc (Kd by titration of the PL peptide), PDZ GRIP1, PDZ Domain 6. Put shortly:
as §1

Assay [7] addresses T7, PDZ-domain polypeptide (GST/PDZ fusion protein) (Homo sapiens, UniProt Q07157).
T7 construct: made in house; host or cells: E. coli (DH5alpha, BL21 or JM109)
The note with it: Peptide Optimal Conc (Kd by titration of the PL peptide), PDZ ZO-1, PDZ Domain 2. Put shortly:
as §1

In assay [8] the target is T8, PDZ-domain polypeptide (GST/PDZ fusion protein) (Homo sapiens, UniProt Q8NI35).
T8 construct: made in house; host or cells: E. coli (DH5alpha, BL21 or JM109)
Particulars: Peptide Optimal Conc (Kd by titration of the PL peptide), PDZ INADL, PDZ Domain 3. Put shortly:
as §1

Assay [9] addresses T9, PDZ-domain polypeptide (GST/PDZ fusion protein) (Homo sapiens, UniProt Q9C0E4).
T9 construct: made in house; host or cells: E. coli (DH5alpha, BL21 or JM109)
The note with it: Peptide Optimal Conc (Kd by titration of the PL peptide). In short, it runs like this:
as §1

For assay [10], the target named is T10, PDZ-domain polypeptide (GST/PDZ fusion protein) (Homo sapiens, UniProt O00560).
T10 construct: made in house; host or cells: E. coli (DH5alpha, BL21 or JM109)
Particulars: PDZ hSyntenin, PDZ Domain 1; titration of the PL peptide; read-out: Peptide Optimal Conc (Kd, dissociation constant). Put shortly:
as §1

The target in assay [11] is T11, PDZ-domain polypeptide (GST/PDZ fusion protein) (Homo sapiens, UniProt Q9HD26).
T11 construct: made in house; host or cells: E. coli (DH5alpha, BL21 or JM109)
Particulars: Peptide Optimal Conc (Kd by titration of the PL peptide), PDZ PIST, PDZ Domain 1. Put shortly:
as §1

The target of assay [12] is T12, PDZ-domain polypeptide (GST/PDZ fusion protein) (Homo sapiens, UniProt Q9UDY2).
T12 construct: made in house; host or cells: E. coli (DH5alpha, BL21 or JM109)
Particulars: Peptide Optimal Conc (Kd by titration of the PL peptide), PDZ ZO-2, PDZ Domain 1. In short, it runs like this: as §1

The target in assay [13] is T13, PDZ-domain polypeptide (GST/PDZ fusion protein) (Homo sapiens, UniProt Q13796).
T13 construct: made in house; host or cells: E. coli (DH5alpha, BL21 or JM109)
T13 sequence (Q13796 whole entry, the tested form may be a part): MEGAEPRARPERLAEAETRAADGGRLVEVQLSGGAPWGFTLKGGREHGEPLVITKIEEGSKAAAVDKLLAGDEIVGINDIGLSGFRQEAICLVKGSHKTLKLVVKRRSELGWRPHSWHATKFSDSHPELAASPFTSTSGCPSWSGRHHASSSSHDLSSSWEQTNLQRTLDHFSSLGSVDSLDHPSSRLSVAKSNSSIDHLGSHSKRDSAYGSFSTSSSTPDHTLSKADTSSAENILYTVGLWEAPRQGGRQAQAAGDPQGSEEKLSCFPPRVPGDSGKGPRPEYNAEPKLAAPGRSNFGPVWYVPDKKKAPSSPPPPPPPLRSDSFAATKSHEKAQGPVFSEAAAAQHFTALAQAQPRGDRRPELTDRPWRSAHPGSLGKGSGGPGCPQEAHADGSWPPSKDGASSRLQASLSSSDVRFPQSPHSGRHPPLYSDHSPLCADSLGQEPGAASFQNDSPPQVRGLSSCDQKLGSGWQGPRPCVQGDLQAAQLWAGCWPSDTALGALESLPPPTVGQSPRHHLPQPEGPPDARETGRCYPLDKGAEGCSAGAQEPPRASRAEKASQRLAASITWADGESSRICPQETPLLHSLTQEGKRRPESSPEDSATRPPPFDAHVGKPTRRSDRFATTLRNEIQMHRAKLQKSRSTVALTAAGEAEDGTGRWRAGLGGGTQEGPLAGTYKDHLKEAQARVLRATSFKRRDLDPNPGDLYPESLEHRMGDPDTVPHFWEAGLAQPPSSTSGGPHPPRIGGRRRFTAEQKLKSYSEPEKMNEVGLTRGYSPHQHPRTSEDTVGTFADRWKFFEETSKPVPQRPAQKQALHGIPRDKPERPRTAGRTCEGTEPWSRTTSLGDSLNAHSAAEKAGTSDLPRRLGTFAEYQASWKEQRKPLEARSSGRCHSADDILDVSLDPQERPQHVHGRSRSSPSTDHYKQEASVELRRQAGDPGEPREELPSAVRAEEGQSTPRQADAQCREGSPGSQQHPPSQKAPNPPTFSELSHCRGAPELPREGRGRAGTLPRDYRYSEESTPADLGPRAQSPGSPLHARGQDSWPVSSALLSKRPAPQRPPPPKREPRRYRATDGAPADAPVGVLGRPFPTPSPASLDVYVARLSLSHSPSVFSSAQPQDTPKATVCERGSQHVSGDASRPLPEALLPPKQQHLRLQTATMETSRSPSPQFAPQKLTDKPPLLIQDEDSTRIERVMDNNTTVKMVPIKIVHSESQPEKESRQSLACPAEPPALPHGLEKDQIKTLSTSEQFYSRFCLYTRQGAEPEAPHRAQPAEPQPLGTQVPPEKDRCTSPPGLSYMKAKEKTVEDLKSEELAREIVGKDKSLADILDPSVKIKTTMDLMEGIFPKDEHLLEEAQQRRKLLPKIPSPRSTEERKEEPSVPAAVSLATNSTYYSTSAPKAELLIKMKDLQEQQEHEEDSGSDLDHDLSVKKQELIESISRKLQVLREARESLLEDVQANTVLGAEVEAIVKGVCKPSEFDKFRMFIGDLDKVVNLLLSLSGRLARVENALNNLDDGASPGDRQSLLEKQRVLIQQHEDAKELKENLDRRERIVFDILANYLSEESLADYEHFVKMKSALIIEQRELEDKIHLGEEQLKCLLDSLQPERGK
Particulars: PDZ hAPXL, PDZ Domain 1; read-out: Peptide Optimal Conc (non-zero value: Kd by titration of the PL peptide). In short, it runs like this:
as §1

Assay [14] concerns the target T14, PDZ-domain polypeptide (GST/PDZ fusion protein) (Homo sapiens, UniProt Q14160).
T14 construct: made in house; host or cells: E. coli (DH5alpha, BL21 or JM109)
The note with it: PDZ KIAA0147, PDZ Domain 3; read-out: Peptide Optimal Conc (Kd by titration of the PL peptide). Put shortly:
as §1

For assay [15], the target named is T15, PDZ-domain polypeptide (GST/PDZ fusion protein) (Homo sapiens, UniProt Q96RT1).
T15 construct: made in house; host or cells: E. coli (DH5alpha, BL21 or JM109)
The note with it: PDZ Erbin, PDZ Domain 1; read-out: Peptide Optimal Conc (Kd by titration of the PL peptide). In short, it runs like this:
as §1

In assay [16] the target is T16, PDZ-domain polypeptide (GST/PDZ fusion protein) (Homo sapiens, UniProt Q9P202).
T16 construct: made in house; host or cells: E. coli (DH5alpha, BL21 or JM109)
Particulars: PDZ KIAA1526, PDZ Domain 1; read-out: Peptide Optimal Conc (Kd by titration of the PL peptide). Put shortly:
as §1

T9 sequence (Q9C0E4 whole entry, the tested form may be a part): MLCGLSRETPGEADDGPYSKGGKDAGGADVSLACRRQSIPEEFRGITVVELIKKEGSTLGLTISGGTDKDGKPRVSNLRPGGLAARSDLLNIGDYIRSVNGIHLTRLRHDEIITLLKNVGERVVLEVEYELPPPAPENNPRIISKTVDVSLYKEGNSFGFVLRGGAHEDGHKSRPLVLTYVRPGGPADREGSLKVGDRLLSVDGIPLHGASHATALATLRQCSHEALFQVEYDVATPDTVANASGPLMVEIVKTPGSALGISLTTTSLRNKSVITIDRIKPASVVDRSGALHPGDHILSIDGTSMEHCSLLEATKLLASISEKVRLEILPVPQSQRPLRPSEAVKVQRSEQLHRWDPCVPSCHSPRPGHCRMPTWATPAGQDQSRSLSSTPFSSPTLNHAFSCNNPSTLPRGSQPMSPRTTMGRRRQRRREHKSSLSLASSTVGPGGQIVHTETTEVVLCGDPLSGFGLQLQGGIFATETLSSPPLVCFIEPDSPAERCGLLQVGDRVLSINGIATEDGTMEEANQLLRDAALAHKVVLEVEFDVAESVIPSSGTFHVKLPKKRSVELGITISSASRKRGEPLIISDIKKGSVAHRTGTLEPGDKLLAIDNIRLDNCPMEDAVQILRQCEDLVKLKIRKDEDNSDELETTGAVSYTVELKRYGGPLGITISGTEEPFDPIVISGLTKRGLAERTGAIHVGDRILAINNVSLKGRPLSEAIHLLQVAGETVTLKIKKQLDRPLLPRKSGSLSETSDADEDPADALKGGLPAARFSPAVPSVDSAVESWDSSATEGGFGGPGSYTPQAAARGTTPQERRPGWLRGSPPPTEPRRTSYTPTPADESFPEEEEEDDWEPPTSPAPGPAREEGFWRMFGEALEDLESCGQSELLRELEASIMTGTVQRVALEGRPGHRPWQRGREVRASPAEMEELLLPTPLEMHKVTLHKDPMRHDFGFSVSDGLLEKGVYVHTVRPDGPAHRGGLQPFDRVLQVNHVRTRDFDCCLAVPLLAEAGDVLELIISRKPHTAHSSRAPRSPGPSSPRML
T7 sequence (Q07157 whole entry, the tested form may be a part): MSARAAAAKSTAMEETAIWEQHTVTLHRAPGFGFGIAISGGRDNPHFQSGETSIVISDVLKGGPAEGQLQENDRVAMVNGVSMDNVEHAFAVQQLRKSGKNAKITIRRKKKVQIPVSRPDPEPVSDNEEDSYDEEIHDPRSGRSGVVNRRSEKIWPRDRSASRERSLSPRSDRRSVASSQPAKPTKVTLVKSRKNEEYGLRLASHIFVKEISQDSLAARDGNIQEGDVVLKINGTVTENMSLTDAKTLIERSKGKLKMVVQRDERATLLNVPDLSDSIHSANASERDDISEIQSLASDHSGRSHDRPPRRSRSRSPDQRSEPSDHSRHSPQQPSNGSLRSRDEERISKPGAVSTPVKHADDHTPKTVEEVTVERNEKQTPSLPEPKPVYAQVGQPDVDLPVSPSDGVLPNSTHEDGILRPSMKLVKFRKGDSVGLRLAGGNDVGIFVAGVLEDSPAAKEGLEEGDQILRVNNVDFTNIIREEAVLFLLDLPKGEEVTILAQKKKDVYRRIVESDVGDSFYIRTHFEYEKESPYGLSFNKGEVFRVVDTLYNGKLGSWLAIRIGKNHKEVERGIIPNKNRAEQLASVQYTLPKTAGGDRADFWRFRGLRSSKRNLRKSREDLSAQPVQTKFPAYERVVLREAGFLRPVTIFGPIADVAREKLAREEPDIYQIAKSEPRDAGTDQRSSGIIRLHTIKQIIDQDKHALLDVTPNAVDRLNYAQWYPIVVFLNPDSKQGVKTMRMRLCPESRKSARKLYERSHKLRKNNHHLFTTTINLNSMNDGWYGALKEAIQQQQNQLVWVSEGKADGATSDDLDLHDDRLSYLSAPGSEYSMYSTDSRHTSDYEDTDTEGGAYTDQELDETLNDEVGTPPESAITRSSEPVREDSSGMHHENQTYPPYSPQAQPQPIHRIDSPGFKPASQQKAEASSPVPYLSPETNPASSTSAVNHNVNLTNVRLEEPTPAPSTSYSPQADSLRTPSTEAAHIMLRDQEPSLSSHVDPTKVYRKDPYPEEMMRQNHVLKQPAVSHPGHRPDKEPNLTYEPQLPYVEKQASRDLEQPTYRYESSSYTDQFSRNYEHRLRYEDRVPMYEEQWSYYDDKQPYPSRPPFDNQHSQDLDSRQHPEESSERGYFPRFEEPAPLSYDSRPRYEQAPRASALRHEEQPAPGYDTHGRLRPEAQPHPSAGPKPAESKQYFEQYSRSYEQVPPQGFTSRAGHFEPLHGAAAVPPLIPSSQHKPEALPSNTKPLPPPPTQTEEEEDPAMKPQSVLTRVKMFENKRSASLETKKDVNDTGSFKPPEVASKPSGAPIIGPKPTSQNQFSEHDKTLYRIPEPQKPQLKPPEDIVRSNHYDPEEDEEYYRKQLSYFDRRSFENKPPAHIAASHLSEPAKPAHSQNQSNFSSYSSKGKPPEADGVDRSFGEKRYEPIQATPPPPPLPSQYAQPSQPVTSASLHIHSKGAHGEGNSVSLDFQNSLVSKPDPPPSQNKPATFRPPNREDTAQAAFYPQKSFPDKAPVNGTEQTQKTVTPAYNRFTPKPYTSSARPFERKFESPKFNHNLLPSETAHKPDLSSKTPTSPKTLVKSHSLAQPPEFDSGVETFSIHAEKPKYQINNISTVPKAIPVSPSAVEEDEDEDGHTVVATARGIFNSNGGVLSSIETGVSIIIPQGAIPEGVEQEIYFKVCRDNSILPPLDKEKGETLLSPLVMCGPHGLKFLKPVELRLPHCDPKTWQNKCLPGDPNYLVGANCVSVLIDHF

For the compound `CC(C)C[C@H](NC(=O)[C@H](CC(=O)O)NC(=O)[C@H](CO)NC(=O)[C@H](CCC(=O)O)NC(=O)CNC(=O)[C@H](Cc1ccc(O)cc1)NC(=O)[C@H](CC(C)C)NC(=O)[C@H](C)NC(=O)[C@H](CO)NC(=O)[C@H](CO)NC(=O)[C@H](Cc1ccccc1)NC(=O)[C@H](C)NC(=O)[C@H](C)NC(=O)[C@H](Cc1ccc(O)cc1)NC(=O)[C@H](CC(=O)O)NC(=O)[C@H](CC(C)C)NC(=O)[C@H](C)NC(=O)CNC(=O)[C@@H]1CCCN1C(=O)[C@@H](NC(=O)CCCC[C@@H]1SC[C@@H]2NC(=O)N[C@@H]21)C(C)C)C(=O)O` [a-actinin 2] (Biotin-VPGALDYAAFSSALYGESDL-OH; C-terminus assumed), the Kd in assay [1] was determined as 2000 nM; in [2] it was 1000 nM.
`CC[C@H](C)[C@H](NC(=O)[C@H](CCCCN)NC(=O)[C@@H](NC(=O)[C@H](CO)NC(=O)[C@@H]1CCCN1C(=O)[C@H](Cc1ccccc1)NC(=O)[C@@H](NC(=O)[C@@H](NC(=O)[C@H](CCCNC(=N)N)NC(=O)[C@H](CCC(=O)O)NC(=O)[C@H](CC(C)C)NC(=O)[C@H](CC(C)C)NC(=O)[C@H](CC(C)C)NC(=O)[C@@H](NC(=O)CNC(=O)[C@@H](NC(=O)CCCC[C@@H]1SC[C@@H]2NC(=O)N[C@@H]21)C(C)C)[C@@H](C)O)C(C)C)[C@@H](C)CC)C(C)C)C(=O)N[C@@H](C)C(=O)N[C@H](C(=O)N[C@@H](CC(C)C)C(=O)N[C@H](C(=O)O)C(C)C)[C@@H](C)O` [Adenovirus E4 Type9]: the Kd in [3] and in assay [4] was 100 nM each time.
Take `CC[C@H](C)[C@H](NC(=O)[C@H](C)NC(=O)[C@H](CC(C)C)NC(=O)[C@H](Cc1c[nH]c2ccccc12)NC(=O)[C@H](Cc1c[nH]cn1)NC(=O)[C@H](CCC(N)=O)NC(=O)[C@H](CC(C)C)NC(=O)[C@H](CCC(N)=O)NC(=O)[C@H](Cc1ccccc1)NC(=O)[C@H](CCC(N)=O)NC(=O)[C@H](CCCNC(=N)N)NC(=O)[C@@H](NC(=O)[C@H](CC(=O)O)NC(=O)[C@H](CCCNC(=N)N)NC(=O)[C@H](CCC(N)=O)NC(=O)[C@H](C)NC(=O)[C@@H](NC(=O)[C@H](CC(C)C)NC(=O)[C@H](Cc1c[nH]cn1)NC(=O)[C@H](Cc1c[nH]cn1)NC(=O)CCCC[C@@H]1SC[C@@H]2NC(=O)N[C@@H]21)C(C)C)[C@@H](C)CC)C(=O)O` [noradrenaline transporter] (Biotin-HHLVAQRDIRQFQLQHWLAI-OH; C-terminus assumed): the Kd in assay [5] is 600 nM; in [6], 500 nM; in assay [7], 400 nM; in [8], 600 nM; in assay [9] (PDZ KIAA1719, PDZ Domain 5), 1000 nM; in assay [9] (PDZ KIAA1719, PDZ Domain 6), 800 nM.
With `CC[C@H](C)[C@H](NC(=O)[C@H](Cc1ccc(O)cc1)NC(=O)[C@@H](NC(=O)[C@@H]1CCCN1C(=O)[C@H](CCC(N)=O)NC(=O)[C@H](CCC(=O)O)NC(=O)[C@H](CCC(N)=O)NC(=O)[C@H](C)NC(=O)[C@@H](NC(=O)[C@H](CC(C)C)NC(=O)[C@H](CC(C)C)NC(=O)[C@H](CCCNC(=N)N)NC(=O)[C@H](Cc1ccc(O)cc1)NC(=O)[C@H](CCSC)NC(=O)[C@H](C)NC(=O)[C@H](C)NC(=O)[C@@H]1CCCN1C(=O)[C@H](CCSC)NC(=O)[C@@H](NC(=O)[C@H](CCCCN)NC(=O)CCCC[C@@H]1SC[C@@H]2NC(=O)N[C@@H]21)[C@@H](C)O)[C@@H](C)O)C(C)C)C(=O)O` [MINT-1] (Biotin-KTMPAAMYRLLTAQEQPVYI-OH; C-terminus assumed), in assay [10], the Kd was 800 nM.
As for `CC[C@H](C)[C@H](NC(=O)[C@H](CC(=O)O)NC(=O)[C@H](CCC(=O)O)NC(=O)[C@H](CCCNC(=N)N)NC(=O)[C@@H](NC(=O)CCCC[C@@H]1SC[C@@H]2NC(=O)N[C@@H]21)[C@@H](C)O)C(=O)N[C@@H](Cc1ccc(O)cc1)C(=O)N[C@H](C(=O)N[C@@H](CC(N)=O)C(=O)N[C@@H](Cc1ccc(O)cc1)C(=O)N1CCC[C@H]1C(=O)N[C@H](C(=O)N[C@@H](Cc1ccccc1)C(=O)N[C@@H](CO)C(=O)N[C@@H](CCCNC(=N)N)C(=O)N[C@@H](CCCNC(=N)N)C(=O)N1CCC[C@H]1C(=O)N[C@@H](CCCCN)C(=O)N[C@H](C(=O)N[C@@H](CCCNC(=N)N)C(=O)N[C@H](C(=O)O)C(C)C)[C@@H](C)O)[C@@H](C)O)C(C)C` [DNAM-1] (Biotin-TREDIYVNYPTFSRRPKTRV-OH; C-terminus assumed), the Kd came out at 2500 nM in assay [11] and 3000 nM in assay [12].
For `CC[C@H](C)[C@H](NC(=O)CNC(=O)[C@H](CO)NC(=O)[C@H](Cc1ccccc1)NC(=O)[C@@H](NC(=O)[C@H](CS)NC(=O)CNC(=O)CNC(=O)[C@H](C)NC(=O)[C@@H]1CCCN1C(=O)[C@@H](NC(=O)[C@@H]1CCCN1C(=O)CCCC[C@@H]1SC[C@@H]2NC(=O)N[C@@H]21)[C@@H](C)CC)[C@@H](C)O)C(=O)N[C@@H](Cc1ccccc1)C(=O)N1CCC[C@H]1C(=O)N[C@H](C(=O)N[C@@H](CC(C)C)C(=O)N[C@H](C(=O)N[C@@H](CO)C(=O)N1CCC[C@H]1C(=O)N[C@@H](CC(C)C)C(=O)O)[C@@H](C)O)[C@@H](C)O` [KIA 1481] (Biotin-PIPAGGCTFSGIFPTLTSPL-OH; C-terminus assumed), the Kd in assay [13] was determined as 600 nM.
For the compound `CSCC[C@H](NC(=O)[C@H](C)NC(=O)[C@H](CCCNC(=N)N)NC(=O)CNC(=O)[C@@H](NC(=O)[C@H](Cc1c[nH]c2ccccc12)NC(=O)[C@H](CCCNC(=N)N)NC(=O)CNC(=O)CCCC[C@@H]1SC[C@@H]2NC(=O)N[C@@H]21)[C@@H](C)O)C(=O)N[C@@H](CO)C(=O)N[C@@H](C)C(=O)N[C@@H](Cc1c[nH]c2ccccc12)C(=O)N[C@@H](CCCCN)C(=O)N1CCC[C@H]1C(=O)N[C@H](C(=O)N[C@@H](CCCNC(=N)N)C(=O)N[C@@H](CCCNC(=N)N)C(=O)N[C@@H](CCC(=O)O)C(=O)N[C@H](C(=O)N[C@@H](CCC(=O)O)C(=O)N[C@H](C(=O)O)C(C)C)[C@@H](C)O)[C@@H](C)O` [HPV E6 #35 (modified)] (Biotin-GRWTGRAMSAWKPTRRETEV-OH; C-terminus assumed), the Kd is 350 nM in assay [14], 400 nM in [15] and 1000 nM in assay [16].
